Consider 23 compounds from ChEMBL document CHEMBL1157844, “QSAR study of flavonoids and biflavonoids as influenza H1N1 virus neuraminidase inhibitors” (Eur J Med Chem, 2010).

Experiment [1] has as its target Neuraminidase (Influenza A virus (A/Puerto Rico/8/1934(H1N1))) (UniProt P03468). Kind of experiment: (§1) Inhibition of Influenza A PR/8/34 H1N1 virus neuraminidase activity by MUN-ANA substrate based fluorimetric assay. Details: unit not given here.
For experiment [2], the target named is Neuraminidase (Influenza A virus (A/Puerto Rico/8/1934(H1N1)), UniProt P03468). The experiment is described as §1.
Neuraminidase (Influenza A virus (A/Puerto Rico/8/1934(H1N1)), UniProt P03468), sequence (P03468 whole entry): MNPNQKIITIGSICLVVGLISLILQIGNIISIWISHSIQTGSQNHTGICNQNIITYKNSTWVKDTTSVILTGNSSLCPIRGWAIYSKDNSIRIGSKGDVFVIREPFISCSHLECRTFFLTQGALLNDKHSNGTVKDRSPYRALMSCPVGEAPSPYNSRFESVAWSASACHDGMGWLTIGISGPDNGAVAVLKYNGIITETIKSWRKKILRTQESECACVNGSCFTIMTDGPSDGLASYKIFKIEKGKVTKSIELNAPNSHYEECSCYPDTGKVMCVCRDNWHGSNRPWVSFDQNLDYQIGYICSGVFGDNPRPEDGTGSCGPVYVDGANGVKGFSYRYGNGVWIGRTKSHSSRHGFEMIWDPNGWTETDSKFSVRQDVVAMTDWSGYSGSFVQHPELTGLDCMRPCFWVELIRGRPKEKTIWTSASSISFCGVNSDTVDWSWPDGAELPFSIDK

Neuraminidase (Influenza A virus (A/Puerto Rico/8/1934(H1N1))), sequence (P03468 whole entry): as above

`COc1ccc(-c2cc(=O)c3c(O)c(Oc4ccc(-c5cc(=O)c6c(O)cc(OC)cc6o5)cc4)c(O[C@]4(C(=O)O)C[C@H](O)[C@@H](NC(C)=O)[C@H]([C@@H](O)[C@@H](O)CO)O4)cc3o2)cc1` came in with a logIC50 in experiment [1] of 1.28. Also, in experiment [2], the midpoint of inhibition, the IC50, lay at 22.3 µM.

In experiment [1], `O=C1/C(=C\c2ccccc2)Oc2cc(O)ccc21` displayed a logIC50 of 1.23. This compound also had an IC50 in experiment [2] of 72 µM.

`O=C(Oc1cc(O)c2c(c1)OC(c1cc(O)c(O)c(O)c1)CC2)c1cc(O)c(O)c(O)c1` (stereo unspecified) returned a logIC50 in experiment [1] of 1.2. For the same compound, in experiment [2], inhibition was half-maximal at 35.5 µM (IC50).

`O=C1/C(=C\c2ccc(O)cc2)Oc2cc(O)ccc21` showed a logIC50 in experiment [1] of 0.748. This compound also had an IC50 in experiment [2] of 22 µM.

For the compound `O=c1c(O[C@H]2O[C@@H](CO)[C@H](O)[C@@H](O)[C@@H]2O[C@@H]2OC[C@@H](O)[C@H](O)[C@H]2O)c(-c2ccc(O)cc2)oc2cc(O)cc(O)c12` (stereo in doubt), the logIC50 in experiment [1] was found to be 1.39. The midpoint of inhibition in experiment [2], the IC50, lay at 42.2 µM.

In experiment [1], `COc1c(O)cc(O)c2c(=O)cc(-c3ccc(O)cc3)oc12` [4'-HYDROXYWOGONIN] yielded a logIC50 of 1.12. For the same compound, half-maximal inhibition in experiment [2] (IC50) was put at 43.8 µM.

`O=c1cc(-c2ccc(O)cc2)oc2cc(O)cc(O)c12` [APIGENIN] yielded a logIC50 in experiment [1] of 0.932. The half-maximal inhibitory concentration (IC50) in experiment [2] was 31.6 µM.

`O=c1cc(-c2ccccc2)oc2cc(O)cc(O)c12` [CHRYSIN] gave a logIC50 in experiment [1] of 1.06. For the same compound, the IC50 in experiment [2] was 45.7 µM.

In turn, `O=c1c(-c2ccc(O)cc2)coc2cc(O)ccc12` [DAIDZEIN] came in with a logIC50 in experiment [1] of 0.975. In experiment [2], this compound gave an IC50 of 37.1 µM.

The compound `O=c1cc(-c2ccc(O)c(O)c2)oc2cc(O[C@@H]3O[C@H](CO)[C@@H](O)[C@H](O)[C@H]3O)cc(O)c12` [GALUTEOLIN] had a logIC50 in experiment [1] of 1.33. In experiment [2], this compound gave an IC50 of 47.4 µM.

Regarding `O=c1c(-c2ccc(O)cc2)coc2cc(O)cc(O)c12` [GENISTEIN], the logIC50 in experiment [1] stood at 1.32. This compound also showed an IC50 in experiment [2] of 77.1 µM.

In experiment [1], `COc1cc(O)c2c(=O)cc(-c3ccc(OC)c(-c4c(O)cc(O)c5c(=O)cc(-c6ccc(O)cc6)oc45)c3)oc2c1` [GINKGETIN] had a logIC50 of 1.74. It took 97.1 µM to reach half-maximal inhibition in experiment [2] (IC50).

As to `O=c1cc(-c2ccc(Oc3c(O)cc4oc(-c5ccc(O)cc5)cc(=O)c4c3O)cc2)oc2cc(O)cc(O)c12` [HINOKIFLAVONE], in experiment [1], the logIC50 amounted to 1.62. This compound also gave an IC50 in experiment [2] of 77.6 µM.

On to `COc1c(O)cc2oc(-c3ccc(O)cc3)cc(=O)c2c1O` [HISPIDULIN], for which the logIC50 in experiment [1] was 1.14. The compound also showed an IC50 in experiment [2] of 46.3 µM.

In turn, `O=c1c(O)c(-c2ccc(O)cc2)oc2cc(O)cc(O)c12` [KAEMPFEROL] displayed a logIC50 in experiment [1] of 1.23. 58.6 µM corresponded to half-maximal inhibition in experiment [2] (IC50).

`O=c1cc(-c2ccc(O)c(O)c2)oc2cc(O)cc(O)c12` [LUTEOLIN] showed a logIC50 in experiment [1] of 0.984. In experiment [2], this compound had an IC50 of 33.7 µM.

In turn, `O=c1c(O)c(-c2cc(O)c(O)c(O)c2)oc2cc(O)cc(O)c12` [MYRICETIN] gave a logIC50 in experiment [1] of 1.42. The IC50 in experiment [2] was 82.6 µM.

As for `O=c1c(O)c(-c2ccc(O)c(O)c2)oc2cc(O)cc(O)c12` [QUERCETIN], the logIC50 in experiment [1] was 1.25. Also, the IC50 in experiment [2] was 58.4 µM.

As for `COc1cc(O)c2c(=O)c(O)c(-c3ccc(O)cc3)oc2c1` [RHAMNOCITRIN], in experiment [1], the logIC50 worked out at 1.19. The IC50 in experiment [2] is 51.5 µM.

The compound `C[C@@H]1O[C@@H](OC[C@H]2O[C@@H](Oc3c(-c4ccc(O)c(O)c4)oc4cc(O)cc(O)c4c3=O)[C@H](O)[C@@H](O)[C@@H]2O)[C@H](O)[C@H](O)[C@H]1O` [RUTIN] showed a logIC50 in experiment [1] of 1.49. In experiment [2], this compound had an IC50 of 51 µM.

The compound `O=c1cc(-c2ccc(O)cc2)oc2cc(O)c(O)c(O)c12` [SCUTELLAREIN] registered a logIC50 in experiment [1] of 1.16. This compound also gave an IC50 in experiment [2] of 50.6 µM.

In experiment [1], `O=C1/C(=C/c2ccc(O)c(O)c2)Oc2cc(O)ccc21` [SULFURETIN] returned a logIC50 of 0.903. Further, in experiment [2], the IC50 is 29.6 µM.

`O=c1cc(-c2ccc(O)cc2)oc2c([C@@H]3O[C@H](CO)[C@@H](O)[C@H](O)[C@H]3O)c(O)cc(O)c12` [VITEXIN] displayed a logIC50 in experiment [1] of 1.32. In experiment [2], this compound had an IC50 of 48.2 µM.
